In one test the target is T1, CHK1 (Homo sapiens, UniProt O14757).
T1 sequence (O14757 1-476): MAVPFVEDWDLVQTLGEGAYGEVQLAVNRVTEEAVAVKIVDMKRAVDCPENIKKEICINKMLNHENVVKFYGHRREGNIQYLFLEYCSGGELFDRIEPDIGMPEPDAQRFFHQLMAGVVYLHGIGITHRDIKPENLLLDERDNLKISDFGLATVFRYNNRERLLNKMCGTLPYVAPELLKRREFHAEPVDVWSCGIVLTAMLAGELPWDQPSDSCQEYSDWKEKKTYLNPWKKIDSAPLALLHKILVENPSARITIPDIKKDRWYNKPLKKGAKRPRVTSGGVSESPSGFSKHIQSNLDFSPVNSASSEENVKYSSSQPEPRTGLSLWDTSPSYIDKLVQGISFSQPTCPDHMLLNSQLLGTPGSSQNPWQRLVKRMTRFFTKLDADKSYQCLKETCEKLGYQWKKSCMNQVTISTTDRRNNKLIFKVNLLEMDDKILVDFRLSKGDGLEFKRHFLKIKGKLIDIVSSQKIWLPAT
In words: CHK1 high-throughput screening. The test is classed as biochemical. Particulars: read-out: % inhibition @ 20 μM, Table 4, repeated entries per example.

Test [1] relates to human umbilical vein endothelial cells (HUVEC). In words: HUVEC proliferation assay. The test is classed as cell-based. As to conditions: Homo sapiens, HUVEC, Table 1. In short, it runs like this: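 Exponentially growing HUVEC were serum-starved 24 h (F12K + 1% FBS), pre-treated 1 h with compound (0.1% DMSO final), then stimulated with 6 ng/ml VEGF. Proliferation was read 72 h later by MTT reduction (A595). IC50 came from seven 0.5-log concentrations in triplicate; screens gave % inhibition relative to VEGF-only and starved wells.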

Test [2] deals with T2, phosphorylated VEGF-R2Δ50 (FLVK-P) (Homo sapiens, UniProt P35968, DEL940-989/E990V).
T2 construct: VEGF-R2Δ50 contains residues 806-939 and 990-1171; made in house; host or cells: baculovirus/insect cells
T2 sequence (P35968 with tags, fused parts or gaps DEL940-989/E990V limits assumed): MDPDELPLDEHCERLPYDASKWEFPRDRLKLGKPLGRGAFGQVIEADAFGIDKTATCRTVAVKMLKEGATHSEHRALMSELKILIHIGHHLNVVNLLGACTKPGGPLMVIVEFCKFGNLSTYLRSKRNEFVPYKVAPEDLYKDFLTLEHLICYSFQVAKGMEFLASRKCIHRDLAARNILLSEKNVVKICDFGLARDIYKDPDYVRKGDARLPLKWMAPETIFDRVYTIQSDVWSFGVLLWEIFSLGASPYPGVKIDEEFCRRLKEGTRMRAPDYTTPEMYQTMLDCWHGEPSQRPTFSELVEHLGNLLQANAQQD
The test can be described thus: VEGF-R2 coupled spectrophotometric (FLVK-P) assay. The format is biochemical. Particulars: Table 1; spectrophotometric assay. Put shortly: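 Baculovirus-expressed human VEGF-R2Δ50 (residues 806-939/990-1171, E990V) was autophosphorylated with 3 mM ATP, 40 mM MgCl2 for 2 h at 4° C. ADP formation was coupled via PK/LDH to NADH oxidation, read at 340 nm, with 5.1 mM poly(E4Y1), 1 mM ATP, 25 mM MgCl2, Hepes pH 7.5. Ki came from activity across compound concentrations.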

The target of test [3] is T3, unphosphorylated VEGF-R2Δ50 (FLVK) (Homo sapiens, UniProt P35968, DEL940-989/E990V).
T3 construct: VEGF-R2Δ50 contains residues 806-939 and 990-1171; made in house; host or cells: baculovirus/insect cells
T3 sequence (P35968 with tags, fused parts or gaps DEL940-989/E990V limits assumed): as above
In words: VEGF-R2 coupled spectrophotometric assay, unphosphorylated enzyme (FLVK). Particulars: Table 1. The test is classed as biochemical. Put shortly:
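Unphosphorylated VEGF-R2Δ50 (5 to 40 nM) with 20 mM poly(E4Y1), 3 mM ATP, 60 mM MgCl2, 2 mM MnCl2 in 200 mM Hepes pH 7.5. ADP production coupled via PK/LDH to NADH oxidation, read at 340 nm. Ki from activity at varying compound concentrations.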

Test [4] deals with lung cancer cells (line MV522). The test can be described thus: Cancer cell proliferation (MV522) assay. The test is classed as cell-based. As to conditions: MV522, Table 1. The procedure: Cancer Cell Proliferation (MV522) Assay
The protocol for assessing cellular proliferation in cancer cells is similar to that used for assessments in HUVEC cells. Two thousand lung cancer cells (line MV522, acquired from American Tissue Cultural Collection) were seeded in growth media (RPMI1640 medium supplemented with 2 mM glutamine and 10% FBS). Cells are allowed to attach for 1 day prior to addition of test agents and/or vehicles. Cells are treated simultaneously with the same test agents used in the HUVEC assay. Cellular proliferation is quantified by MTT dye reduction assay 72 hours after exposure to test agents. The total length of the assay is 4 days vs. 5 for HUVEC cells because MV522 cells are not exposed to starvation medium.

A value given as a limit tells only on which side of the number the result lay.

As a reminder, the inhibition is the change of the read-out against control, counted positive when it falls. On to `CSc1cccc(Nc2nc(N)c(-c3nc(-c4cccc(NC(=O)c5ccccc5)c4)cs3)s2)c1` [A(46), N-{3-[4′-Amino-2′-(3-methylsulfanyl-phenylamino)-[2,5′]bithiazolyl-4-yl]-phenyl}-benzamide], for which, on CHK1, the inhibition at 20 µM was found to be 0.9%.
For the molecule `COc1cc(Nc2nc(N)c(-c3nc(-c4cccc(C(=O)NCc5ccccc5)c4)cs3)s2)cc(OC)c1OC` [A(32), 3-[4′-Amino-2′-(3,4,5-trimethoxy-phenylamino)-[2,5′]bithiazolyl-4-yl]-N-benzyl-benzamide], the inhibition at 20 µM on CHK1 was -3.8%.
As to `COc1ccc(Nc2nc(N)c(-c3nc(-c4cccc(NC(=O)c5ccccc5)c4)cs3)s2)cc1` [A(52), 4-(4′-Amino-4-(3-benzamidophenyl)-[2,5′]bithiazolyl-2′-ylamino)-methoxyphenyl], at CHK1, the inhibition at 20 µM stood at 2%.
As to `CCN(CC)CCCNc1nc(N)c(-c2nc(-c3cccc(NC(=O)c4ccccc4)c3)cs2)s1` [A(37), N-{3-[4′-Amino-2′-(3-diethylamino-propylamino)-[2,5′]bithiazolyl-4-yl]-phenyl}-benzamide], at CHK1, the inhibition at 20 µM is 16%.
Same read-out and setting: for `Nc1nc(Nc2ccc3c(c2)CCC3)sc1-c1nc(-c2cccc(NC(=O)c3ccccc3)c2)cs1` [A(43)] the value was -3%.
Consider `COc1cc(Nc2nc(N)c(-c3nc(-c4cccc(C(=O)NCCc5ccccc5)c4)cs3)s2)cc(OC)c1OC` [A(31), 3-[4′-Amino-2′-(3,4,5-trimethoxy-phenylamino)-[2,5′]bithiazolyl-4-yl]-N-phenethyl-benzamide], for which the inhibition at 20 µM at CHK1 was determined as 2.5%.
By IC50 is commonly meant the concentration that gives 50% inhibition. By Ki is commonly meant a dissociation constant, usually derived from enzyme kinetics or from competition with a known ligand. A higher Ki goes with a looser hold on the target. Consider `COc1cc(Nc2nc(N)c(-c3nc(-c4cccc(NC(=O)c5cccc(Cl)c5)c4)cs3)s2)cc(OC)c1OC` [D(40), N-{3-[4′-Amino-2′-(3,4,5-trimethoxy-phenylamino)-[2,5′]bithiazolyl-4-yl]-phenyl}-3-chloro-benzamide], for which the IC50 in test [1] is 39 nM; in test [4] it was more than 10000 nM. In addition, the inhibition constant Ki in test [2] is 1.1 nM; in test [3] it was 1.4 nM.
The corresponding values for `COc1cc(Nc2nc(N)c(-c3nc(-c4cccc(NC(=O)c5ncc(C)s5)c4)cs3)s2)cc(OC)c1OC` [D(42), 5-Methyl-thiazole-2-carboxylic acid {3-[4′-amino-2′-(3,4,5-trimethoxy-phenylamino)-[2,5′]bithiazolyl-4-yl]-phenyl}-amide] are 53 nM, more than 10000 nM, 0.34 nM and 0.77 nM.
Regarding `COC(=O)c1cccc(Nc2nc(N)c(-c3nc(-c4cccc(NC(=O)c5ccccc5)c4)cs3)s2)c1` [A(39), 3-[4′-Amino-4-(3-benzoylaminophenyl)-[2,5′]bithiazolyl-2′-ylamino]-benzoic acid methyl ester], at CHK1, the inhibition at 20 µM amounted to 2.2%.
In the case of `Nc1nc(Nc2ccc3c(c2)OCO3)sc1-c1nc(-c2cccc(NC(=O)c3ccccc3)c2)cs1` [A(41), N-{3-[4′-Amino-2′-(benzo[1,3]dioxol-5-ylamino)-[2,5′]bithiazolyl-4-yl]-phenyl}-benzamide], the inhibition at 20 µM on CHK1 amounted to 3.8%.
Regarding `CC(=O)c1ccc(Nc2nc(N)c(-c3nc(-c4cccc(NC(=O)c5ccccc5)c4)cs3)s2)cc1` [A(58), 4-(4′-Amino-4-(3-benzamidophenyl)-[2,5′]bithiazolyl-2′-ylamino)-acetophenone], the inhibition at 20 µM on CHK1 was -7.2%.
Take `COc1cc(Nc2nc(N)c(-c3nc(-c4cccc(NC(=O)OCc5ccccc5)c4)cs3)s2)cc(OC)c1OC` [D(12), {3-[4′-Amino-2′-(3,4,5-trimethoxy-phenylamino)-[2,5′]bithiazolyl-4-yl]-phenyl}-carbamic acid benzyl ester]: the values for the half-maximal inhibitory concentration (IC50) in test [1] and in test [4] were 160 nM and more than 10000 nM, respectively. Also, the Ki is 2 nM in test [2] and 2.6 nM in test [3].
`Nc1nc(Nc2ccc(S(=O)(=O)N3CCCCC3)cc2)sc1-c1nc(-c2cccc(NC(=O)c3ccccc3)c2)cs1` [A(55), 4-(4′-Amino-4-(3-benzamidophenyl)-[2,5′]bithiazolyl-2′-ylamino)-phenylsulfonylpiperidine]: the inhibition at 20 µM at CHK1 is 0.1%.

The values are drawn from US6620828B2, “Thiazole compounds and pharmaceutical compositions for inhibiting protein kinases and methods for their use” (Agouron Pharmaceuticals, Inc., priority 1999, dated 2003).
